In patent US8222231B2, “Derivatives of partially desulphated glycosaminoglycans endowed with antiangiogenic activity and devoid of anticoagulating effect” (Sigma-Tau Industrie Farmaceutiche Riunite SpA, priority 2000, dated 2012):

Key:
CAM = settings: in the presence of corticosteroids; compared with heparin; cited from earlier work
[1] = target: T1, FGFR/FGF2/HSPG ternary complex (Homo sapiens, UniProt P09038); assay: Inhibition of FGF2-mediated intercellular adhesion of CHO-K1 and CHO-745flg cells; assay type: cell-based, Chinese hamster
T1 construct: expressed in transfected cells; host or cells: CHO 745/flg (HSPG-deficient CHO mutants transfected with FGFR-1); fixed CHO-K1 monolayer supplies HSPGs; FGF-2 added to the medium
T1 sequence (P09038 143-288, one chain of several): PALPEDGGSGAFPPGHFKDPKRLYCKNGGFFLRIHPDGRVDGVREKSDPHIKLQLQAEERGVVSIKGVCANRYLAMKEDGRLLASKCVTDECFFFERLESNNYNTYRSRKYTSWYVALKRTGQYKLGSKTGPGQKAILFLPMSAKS
Description: To this end an in-vitro model was designed capable of assessing the interference of the various different heparin derivatives with bFGF binding to its own receptor.
These latter cells were stably transfected with cDNA for green fluorescent protein and for this reason could be observed under the fluorescence microscope with a combination of filters for the detection of green emission. In brief, the technique is based on the possibility that the two types of cells may interact (form stable bonds) only if FGF is added to the two cell types. In fact, in this case, the heparan sulphates of the CHO-745flg cells will bind to FGF, which in turn will bind to the CHO-K1 cells, establishing a bridge. The binding that occurs is detectable as a result of the green fluorescence emitted by the CHO-745flg cells.
CHO-K1 cells were seeded at a density of 90,000 cells/cm2 in 24-well plates. After 24 hours the cells were fixed in 3% glutaraldehyde in PBS for 2 hours at 4° C. and washed with 0.1 M glycine/PBS. […] After 2 hours' incubation at 37° C., the adhering cells were counted under the inverted microscope. The results were expressed as percentage of the number of cells adhering compared to those measured in the absence of the test compounds. […]

[2] = tested on: chick embryo chorioallantoic membrane; assay: Angiostatic activity on chick embryo chorioallantoic membrane (CAM) model; settings: in vivo
Description: For the study of angiogenesis the model used was the chick embryo chorioallantoic membrane model (Ribatti e al. Int. J. Dev. Biol., 40, 1189 (1996)).
300 embryonated hens' eggs were incubated at 37° C. in constant humidity conditions. On the 3rd day of incubation, after aspirating 2-3 ml of albumen from the acute pole of the egg so as to detach the CAM from the shell, a window was cut with scissors in the shell. The vessels underlying the CAM were thus exposed. The window was closed with a transparent glass panel and the eggs were put back into the incubator. […] The experiments were discontinued on the 12th day of incubation, when an overall assessment of the angiogenic activity of the molecules was carried out, expressed as percentage inhibition in relation to the number of experiments initiated and completed (Table 9). In addition, for compound ST1514, assayed at the concentration of 100 μg/embryo, a macroscopic quantitative evaluation of the angiostatic activity was also carried out according to the technique proposed by Brooks et al. (Science, 264, 569, (1994)), counting the number of vessels surrounding the sponge. […]

[3] = Evaluation of heparin toxicity in Balb/c mice; assay type: in vivo; settings: 50 mg/kg and 25 mg/kg subcutaneously, q2dx5
Description: 20 6-week-old female Balb/c mice weighing 20 g (Harlan), divided into groups by casual randomisation, were treated with heparin sodium, as a reference, and with the compound according to the present invention called STI514. The treatment schedule was of the q2dx5 type, i.e. 5 total administrations at intervals of 2 days, administering 200 μl/mouse of 50 mg/kg/10 ml and 25 mg/kg/10 ml solutions subcutaneously.
Heparin sodium: the solution is prepared by solubilizing 160 mg of powder in 4 ml of PBS 1× pH 7.4 free of Ca^++-and Mg^++-ions; it is subdivided into aliquots of 243 μl and stored at −20° C. At the time of treatment, the solution is diluted in Ca^++-and Mg^++-free PBS (Dulbecco, modified formula) 1×, pH 7.4 so as to have the substance at final concentrations of 50 mg/kg/10 ml and 25 mg/kg/10 ml.
ST1514: the solution is prepared by solubilizing 160 mg of powder in 4 ml of Ca^++-and Mg^++-free PBS 1×, pH 7.4; it is subdivided into aliquots of 243 μl and stored at −20° C. […]
Full blood count: the appliance (Cell Analyzer 580 A, DELCON) is used according to the standard procedure described in the operating manual. […] This solution is used for the WBC reading. Solution B, on the other hand, is used for the RBC and platelet (PLT) readings. Each sample is read in duplicate.
The data obtained will be analyzed using ANOVA.

2-O-desulfated heparin
antiangiogenic activity as assessed by means of the CAM test (CAM): partly maintained the antiangiogenic activity of heparin

Heparin
Cell-Cell Adh. (ID50, ng/mL), inhibition of FGF2-mediated cell-cell adhesion [1]: 100 ng/mL
Angiostatic activity on CAM model (stated in words) [2]: no activity

heparin sodium
liver characteristics at autopsy [3]: livers with abnormal characteristics
